Assay results from patent US9096624B2 (OSI Pharmaceuticals, LLC, priority 2009, dated 2015).

Legend:
FAK [1] = biological target: T1, FAK (Homo sapiens, UniProt Q05397); assay: Cell-based capture ELISA for inhibition of FAK autophosphorylation [pY397] in MiaPaCa2 cells
Experimental: Cell-Based Assays for Inhibition of FAK Autophosphorylation: MiaPaCa2 and U87MG
ELISA kit from Invitrogen (KHO0441).
Reagents Provided in Biosource FAK [pY397]
The cells were then suspended in cell assay medium.

FAK [2] = biological target: T1, FAK; assay: biochemical
[3] = MIA-PaCa2 cells on fibronectin, 2 h, no plasma, read-out: Mean FAK Cell Mechanistic IC50 MIA-PaCa2
[4] = MIA-PaCa2 cells, + 50% human plasma, read-out: Mean FAK Cell Mechanistic IC50 + 50% hP MIA-PaCa2
[5] = MIA-PaCa2 cells, + 50% mouse plasma (Table 2), read-out: Mean FAK Cell Mechanistic IC50 + 50% mP MIA-PaCa2

T1 sequence (Q05397 whole entry): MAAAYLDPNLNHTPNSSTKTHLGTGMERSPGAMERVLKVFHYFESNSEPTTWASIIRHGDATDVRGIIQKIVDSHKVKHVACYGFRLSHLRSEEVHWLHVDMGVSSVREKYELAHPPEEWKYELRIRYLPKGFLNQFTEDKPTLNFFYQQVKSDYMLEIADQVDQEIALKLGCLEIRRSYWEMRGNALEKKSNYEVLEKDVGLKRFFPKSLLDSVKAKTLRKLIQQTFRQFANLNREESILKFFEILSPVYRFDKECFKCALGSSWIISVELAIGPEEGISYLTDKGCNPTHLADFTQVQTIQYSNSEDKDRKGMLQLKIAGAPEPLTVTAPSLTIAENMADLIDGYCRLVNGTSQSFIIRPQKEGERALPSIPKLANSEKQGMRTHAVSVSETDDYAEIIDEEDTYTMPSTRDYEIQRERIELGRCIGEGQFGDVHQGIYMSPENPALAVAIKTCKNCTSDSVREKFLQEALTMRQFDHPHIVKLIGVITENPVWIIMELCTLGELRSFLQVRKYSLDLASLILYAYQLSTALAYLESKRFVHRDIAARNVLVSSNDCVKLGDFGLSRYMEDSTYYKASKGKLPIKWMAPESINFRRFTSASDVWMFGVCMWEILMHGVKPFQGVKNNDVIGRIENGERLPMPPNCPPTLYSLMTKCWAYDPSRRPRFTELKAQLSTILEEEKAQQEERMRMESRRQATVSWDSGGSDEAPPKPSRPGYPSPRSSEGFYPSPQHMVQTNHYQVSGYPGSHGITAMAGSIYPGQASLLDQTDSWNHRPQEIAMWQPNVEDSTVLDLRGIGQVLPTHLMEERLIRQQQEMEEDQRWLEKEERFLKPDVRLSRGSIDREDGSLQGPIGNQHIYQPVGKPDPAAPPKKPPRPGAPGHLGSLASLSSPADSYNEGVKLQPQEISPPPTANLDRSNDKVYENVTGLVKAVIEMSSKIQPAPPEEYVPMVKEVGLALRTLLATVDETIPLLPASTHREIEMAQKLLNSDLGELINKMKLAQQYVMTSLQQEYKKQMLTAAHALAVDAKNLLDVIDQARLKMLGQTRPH

Row | SMILES | IC50 (FAK [1]; [3]) | IC50 (FAK [1]; [4]) | IC50 (FAK [2]) | IC50 (FAK [1]; [5])
1 | CCOP(C)(=O)Cc1ccc(Nc2ncc(C(F)(F)F)c(Nc3ccc(-c4cnn(C)c4)c4c3C(=O)N(C)C4)n2)cc1 (centres unmarked) [Example 63, Ethyl methyl(4-{[4-{[2-methyl-7-(1-methyl-1H-pyrazol-4-yl)-3-oxo-2,3-dihydro-1H-isoindol-4-yl]amino}-5-(trifluoromethyl)pyrimidin-2-yl]amino}benzyl)phosphinate] | < 1000 nM | < 1000 nM | < 1000 nM | –
2 | CCOP(C)(=O)Cc1ccc(Nc2ncc(C(F)(F)F)c(Nc3ccc(-c4cnn(CCO)c4)c4c3C(=O)N(C)C4)n2)cc1 (centres unmarked) [Example 64, Ethyl (4-{[4-({7-[1-(2-hydroxyethyl)-1H-pyrazol-4-yl]-2-methyl-3-oxo-2,3-dihydro-1H-isoindol-4-yl}amino)-5-(trifluoromethyl)pyrimidin-2-yl]amino}benzyl)methylphosphinate] | < 1000 nM | < 1000 nM | < 1000 nM | –
3 | CCOP(C)(=O)Cc1ccc(Nc2ncc(C(F)(F)F)c(Nc3ccc(-c4cnn(C[C@@H](O)CO)c4)c4c3C(=O)N(C)C4)n2)cc1 (stereo partly drawn) [Example 65, Ethyl [4-({4-[(7-{1-[(2R)-2,3-dihydroxypropyl]-1H-pyrazol-4-yl}-2-methyl-3-oxo-2,3-dihydro-1H-isoindol-4-yl)amino]-5-(trifluoromethyl)pyrimidin-2-yl}amino)benzyl]methylphosphinate] | < 1000 nM | < 1000 nM | < 1000 nM | –
4 | CCOP(C)(=O)Cc1ccc(Nc2ncc(C(F)(F)F)c(Nc3ccc(-c4ccccc4)c4c3C(=O)N(C)C4)n2)cc1 (centres unmarked) [Example 66, Ethyl methyl[4-({4-[(2-methyl-3-oxo-7-phenyl-2,3-dihydro-1H-isoindol-4-yl)amino]-5-(trifluoromethyl)pyrimidin-2-yl}amino)benzyl]phosphinate] | – | – | < 1000 nM | < 1000 nM
5 | CCOP(C)(=O)Cc1ccc(Nc2ncc(C(F)(F)F)c(Nc3ccc(-c4cn[nH]c4)c4c3C(=O)N(C)C4)n2)cc1 (centres unmarked) [Example 67, Ethyl methyl(4-{[4-{[2-methyl-3-oxo-7-(1H-pyrazol-4-yl)-2,3-dihydro-1H-isoindol-4-yl]amino}-5-(trifluoromethyl)pyrimidin-2-yl]amino}benzyl)phosphinate] | < 1000 nM | < 1000 nM | < 1000 nM | –
6 | C=C(C)c1ccc(Nc2nc(Nc3ccc(CP(C)(=O)OCC)cc3)ncc2C(F)(F)F)c2c1CN(C)C2=O (centres unmarked) [Example 68, Ethyl methyl(4-{[4-{[2-methyl-3-oxo-7-(prop-1-en-2-yl)-2,3-dihydro-1H-isoindol-4-yl]amino}-5-(trifluoromethyl)pyrimidin-2-yl]amino}benzyl)phosphinate] | < 1000 nM | 1000 to 10000 nM | < 1000 nM | –
7 | CCOP(=O)(Cc1ccc(Nc2ncc(C(F)(F)F)c(Nc3ccc(-c4cnn(CCO)c4)c4c3C(=O)N(C)C4)n2)c(OC)c1)OCC [Example 69, Diethyl (4-{[4-({7-[1-(2-hydroxyethyl)-1H-pyrazol-4-yl]-2-methyl-3-oxo-2,3-dihydro-1H-isoindol-4-yl}amino)-5-(trifluoromethyl)pyrimidin-2-yl]amino}-3-methoxybenzyl)phosphonate] | < 1000 nM | < 1000 nM | < 1000 nM | –
8 | CCOP(=O)(Cc1ccc(Nc2ncc(C(F)(F)F)c(Nc3ccc(-c4cnn(C[C@H](O)CO)c4)c4c3C(=O)N(C)C4)n2)c(OC)c1)OCC [Example 70, Diethyl [4-({4-[(7-{1-[(2S)-2,3-dihydroxypropyl]-1H-pyrazol-4-yl}-2-methyl-3-oxo-2,3-dihydro-1H-isoindol-4-yl)amino]-5-(trifluoromethyl)pyrimidin-2-yl}amino)-3-methoxybenzyl]phosphonate] | < 1000 nM | < 1000 nM | < 1000 nM | –
9 | CCOP(=O)(Cc1ccc(Nc2ncc(C(F)(F)F)c(Nc3ccc(-c4cnn(C)c4)c4c3C(=O)N(C)C4)n2)c(OC)c1)OCC [Example 71, Diethyl (3-methoxy-4-{[4-{[2-methyl-7-(1-methyl-1H-pyrazol-4-yl)-3-oxo-2,3-dihydro-1H-isoindol-4-yl]amino}-5-(trifluoromethyl)pyrimidin-2-yl]amino}benzyl)phosphonate] | < 1000 nM | < 1000 nM | < 1000 nM | –
10 | CCOP(=O)(Cc1ccc(Nc2ncc(C(F)(F)F)c(Nc3ccc(-c4cnn(CC(C)(C)O)c4)c4c3C(=O)N(C)C4)n2)c(OC)c1)OCC [Example 72, Diethyl (4-{[4-({7-[1-(2-hydroxy-2-methylpropyl)-1H-pyrazol-4-yl]-2-methyl-3-oxo-2,3-dihydro-1H-isoindol-4-yl}amino)-5-(trifluoromethyl)pyrimidin-2-yl]amino}-3-methoxybenzyl)phosphonate] | – | – | < 1000 nM | < 1000 nM
11 | CCOP(=O)(Cc1ccc(Nc2ncc(C(F)(F)F)c(Nc3ccc(C4=CCN(C(N)=O)CC4)c4c3C(=O)N(C)C4)n2)c(OC)c1)OCC [Example 73, Diethyl (4-{[4-{[7-(1-carbamoyl-1,2,3,6-tetrahydropyridin-4-yl)-2-methyl-3-oxo-2,3-dihydro-1H-isoindol-4-yl]amino}-5-(trifluoromethyl)pyrimidin-2-yl]amino}-3-methoxybenzyl)phosphonate] | – | – | < 1000 nM | < 1000 nM
12 | CCOP(C)(=O)Cc1ccc(Nc2ncc(C(F)(F)F)c(Nc3ccc(C#CC(C)(C)O)c4c3C(=O)N(C)C4)n2)cc1 (centres unmarked) [Example 75] | < 1000 nM | < 1000 nM | < 1000 nM | –
13 | CCOP(C)(=O)Cc1ccc(Nc2ncc(C(F)(F)F)c(Nc3ccc(C#CC(C)O)c4c3C(=O)N(C)C4)n2)cc1 (centres unmarked) [Example 76, Ethyl (4-{[4-{[7-(3-hydroxybut-1-yn-1-yl)-2-methyl-3-oxo-2,3-dihydro-1H-isoindol-4-yl]amino}-5-(trifluoromethyl)pyrimidin-2-yl]amino}benzyl)methylphosphinate] | < 1000 nM | 1000 to 10000 nM | < 1000 nM | –
14 | CCOP(C)(=O)Cc1ccc(Nc2ncc(C(F)(F)F)c(Nc3ccc(C#CCO)c4c3C(=O)N(C)C4)n2)cc1 (centres unmarked) [Example 77, Ethyl (4-{[4-{[7-(3-hydroxyprop-1-yn-1-yl)-2-methyl-3-oxo-2,3-dihydro-1H-isoindol-4-yl]amino}-5-(trifluoromethyl)pyrimidin-2-yl]amino}benzyl)methylphosphinate] | < 1000 nM | < 1000 nM | < 1000 nM | –
15 | CCOP(C)(=O)Cc1ccc(Nc2ncc(C(F)(F)F)c(Nc3ccc(C(C)C)c4c3C(=O)N(C)C4)n2)cc1 (centres unmarked) [Example 78, Ethyl methyl(4-{[4-{[2-methyl-3-oxo-7-(propan-2-yl)-2,3-dihydro-1H-isoindol-4-yl]amino}-5-(trifluoromethyl)pyrimidin-2-yl]amino}benzyl)phosphinate] | < 1000 nM | – | < 1000 nM | –
16 | CCOP(C)(=O)Cc1ccc(Nc2ncc(C(F)(F)F)c(Nc3ccc(C4CCC(O)CC4)c4c3C(=O)N(C)C4)n2)cc1 (centres unmarked) [Example 79, Ethyl (4-{[4-{[7-(4-hydroxycyclohexyl)-2-methyl-3-oxo-2,3-dihydro-1H-isoindol-4-yl]amino}-5-(trifluoromethyl)pyrimidin-2-yl]amino}benzyl)methylphosphinate] | < 1000 nM | < 1000 nM | < 1000 nM | –
